Measurements taken from patent publication US20230414735A1, “NEOANTIGENS AND METHODS OF THEIR USE” (priority 2016, published 2023).

Test system: HLA Class I molecules
Test: HLA class I binding stability assay (pMHC-I complex dissociation, 125I-labeled β2m, scintillation counts)
Design: species or system human
Details: 37° C.

Row | SMILES | Stability (T1/2 (h)) (allele A02.01) [h] | Stability (T1/2 (h)) (allele B08.01) [h]
1 | CC[C@H](C)[C@H](NC(=O)[C@@H]1CCCN1C(=O)[C@H](CCCNC(=N)N)NC(=O)[C@H](Cc1c[nH]c2ccccc12)NC(=O)[C@H](CC(N)=O)NC(=O)[C@H](CCSC)NC(=O)CNC(=O)CNC(=O)[C@H](CCSC)NC(=O)[C@@H](N)CS)C(=O)O | 0.4 | –
2 | CC(C)C[C@H](NC(=O)[C@@H](N)Cc1ccccc1)C(=O)N[C@@H](CCC(N)=O)C(=O)N[C@@H](CCC(=O)O)C(=O)N[C@@H](CCC(N)=O)C(=O)N[C@@H](Cc1ccc(O)cc1)C(=O)N[C@@H](Cc1c[nH]cn1)C(=O)N[C@@H](CCC(=O)O)C(=O)N[C@@H](C)C(=O)O | 9.5 | –
3 | CC[C@H](C)[C@H](NC(=O)[C@@H](NC(=O)[C@H](CC(C)C)NC(=O)[C@@H](NC(=O)[C@@H]1CCCN1C(=O)[C@H](CCCNC(=N)N)NC(=O)[C@H](CCC(N)=O)NC(=O)[C@H](CC(N)=O)NC(=O)[C@H](CCSC)NC(=O)CN)[C@@H](C)CC)[C@@H](C)O)C(=O)O | 0.4 | –
4 | CC[C@H](C)[C@H](NC(=O)[C@@H](NC(=O)[C@H](CC(C)C)NC(=O)[C@@H](NC(=O)[C@@H]1CCCN1C(=O)[C@H](CCCNC(=N)N)NC(=O)[C@H](Cc1c[nH]c2ccccc12)NC(=O)[C@H](CC(N)=O)NC(=O)[C@H](CCSC)NC(=O)CN)[C@@H](C)CC)[C@@H](C)O)C(=O)O | 0.5 | –
5 | CC[C@H](C)[C@H](NC(=O)[C@@H](NC(=O)[C@H](CC(C)C)NC(=O)[C@@H](NC(=O)[C@@H]1CCCN1C(=O)[C@H](CCCNC(=N)N)NC(=O)[C@H](CCCNC(=N)N)NC(=O)[C@H](CC(N)=O)NC(=O)[C@H](CCSC)NC(=O)[C@@H](N)CO)[C@@H](C)CC)[C@@H](C)O)C(=O)O | 0.3 | –
6 | CC[C@H](C)[C@H](NC(=O)[C@H](CCCCN)NC(=O)[C@H](CO)NC(=O)[C@H](CCC(=O)O)NC(=O)[C@H](C)NC(=O)[C@H](CCCCN)NC(=O)[C@H](CC(C)C)NC(=O)[C@H](Cc1ccccc1)NC(=O)[C@H](CCSC)NC(=O)[C@@H](N)Cc1ccc(O)cc1)C(=O)O | 0.6 | 0.4
7 | CSCC[C@H](NC(=O)[C@@H](NC(=O)[C@H](Cc1ccc(O)cc1)NC(=O)[C@H](C)NC(=O)[C@H](CCSC)NC(=O)[C@@H](NC(=O)[C@@H](N)Cc1ccc(O)cc1)C(C)C)C(C)C)C(=O)N[C@@H](C)C(=O)NCC(=O)O | 2.5 | 1.2
8 | CSCC[C@H](NC(=O)[C@@H](NC(=O)[C@H](Cc1ccc(O)cc1)NC(=O)[C@H](C)NC(=O)[C@H](CCSC)NC(=O)[C@@H](NC(=O)[C@@H](N)Cc1ccc(O)cc1)C(C)C)C(C)C)C(=O)N[C@@H](C)C(=O)NCC(=O)N[C@H](C(=O)O)C(C)C | 20.9 | –

The remaining lines, values ahead:

Row | Stability (T1/2 (h)) (allele A02.01) [h] | Stability (T1/2 (h)) (allele B08.01) [h] | SMILES
9 | 0.3 | – | CSCC[C@H](NC(=O)[C@H](CC(C)C)NC(=O)[C@H](CO)NC(=O)[C@H](CC(C)C)NC(=O)[C@@H]1CCCN1C(=O)[C@H](CCC(N)=O)NC(=O)[C@H](CCSC)NC(=O)[C@H](CCC(N)=O)NC(=O)[C@@H](N)Cc1ccccc1)C(=O)O
10 | 0.4 | – | CC[C@H](C)[C@H](NC(=O)[C@H](CO)NC(=O)[C@H](Cc1c[nH]c2ccccc12)NC(=O)[C@H](Cc1c[nH]cn1)NC(=O)[C@H](C)NC(=O)[C@@H]1CCCN1C(=O)[C@H](CCSC)NC(=O)[C@H](CC(C)C)NC(=O)[C@H](CO)NC(=O)[C@@H](N)CC(C)C)C(=O)O
11 | 1 | – | CC[C@H](C)[C@H](NC(=O)[C@@H]1CCCN1C(=O)[C@H](CC(C)C)NC(=O)[C@H](Cc1ccccc1)NC(=O)[C@H](CC(C)C)NC(=O)[C@H](CO)NC(=O)[C@H](CC(=O)O)NC(=O)[C@@H](NC(=O)[C@H](CC(C)C)NC(=O)[C@@H](N)CCSC)[C@@H](C)O)C(=O)O
12 | 5 | – | CC[C@H](C)[C@H](NC(=O)[C@H](CO)NC(=O)[C@H](Cc1c[nH]c2ccccc12)NC(=O)[C@H](Cc1c[nH]cn1)NC(=O)[C@H](C)NC(=O)[C@@H]1CCCN1C(=O)[C@H](CCSC)NC(=O)[C@H](CC(C)C)NC(=O)[C@@H](N)CO)C(=O)O
